Measurements reported in PubChem BioAssay (NCI).
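Each compound was tested at five concentrations against cells in 96-well plates for 48 hours. GI50: concentration for 50% inhibition of growth. TGI: concentration producing complete growth inhibition.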

Assays:
Test in all cases: inhibition of tumour cell growth, NCI panel, 48 h
BT-549 breast = system: BT-549 breast
SNB-75 CNS = system: SNB-75 CNS
NCI-H460 lung = system: NCI-H460 lung
NCI-H522 lung = system: NCI-H522 lung
COLO 205 colon = system: COLO 205 colon
ACHN renal = system: ACHN renal
NCI-H23 lung = system: NCI-H23 lung
SW-620 colon = system: SW-620 colon
UACC-62 melanoma = system: UACC-62 melanoma
HS 578T breast = system: HS 578T breast
NCI-H226 lung = system: NCI-H226 lung
DU-145 prostate = system: DU-145 prostate
IGROV1 ovarian = system: IGROV1 ovarian
EKVX NSCLC = system: EKVX NSCLC
OVCAR-5 ovarian = system: OVCAR-5 ovarian
OVCAR-3 ovarian = system: OVCAR-3 ovarian
HL-60(TB) leukemia = system: HL-60(TB) leukemia
TK-10 renal = system: TK-10 renal
NCI/ADR-RES ovarian = system: NCI/ADR-RES ovarian
A498 renal = system: A498 renal
MDA-MB-231 breast = system: MDA-MB-231 breast
MCF7 breast = system: MCF7 breast
SF-539 CNS = system: SF-539 CNS
LOX IMVI melanoma = system: LOX IMVI melanoma
U251 CNS = system: U251 CNS
SR leukemia = system: SR leukemia
RXF 393 renal = system: RXF 393 renal
HT29 colon = system: HT29 colon
PC-3 prostate = system: PC-3 prostate
HCT-15 colon = system: HCT-15 colon
SNB-19 CNS = system: SNB-19 CNS
OVCAR-4 ovarian = system: OVCAR-4 ovarian
HCC-2998 colon = system: HCC-2998 colon
CAKI-1 renal = system: CAKI-1 renal
SK-MEL-5 melanoma = system: SK-MEL-5 melanoma
MOLT-4 leukemia = system: MOLT-4 leukemia
UACC-257 melanoma = system: UACC-257 melanoma
CCRF-CEM leukemia = system: CCRF-CEM leukemia
M14 melanoma = system: M14 melanoma
UO-31 renal = system: UO-31 renal
HOP-92 NSCLC = system: HOP-92 NSCLC
SF-268 CNS = system: SF-268 CNS
HOP-62 NSCLC = system: HOP-62 NSCLC
SK-MEL-28 melanoma = system: SK-MEL-28 melanoma
SK-OV-3 ovarian = system: SK-OV-3 ovarian
786-0 renal = system: 786-0 renal
K-562 leukemia = system: K-562 leukemia
SN12C renal = system: SN12C renal
OVCAR-8 ovarian = system: OVCAR-8 ovarian
RPMI-8226 leukemia = system: RPMI-8226 leukemia
SF-295 CNS = system: SF-295 CNS
A549 NSCLC = system: A549 NSCLC
HCT-116 colon = system: HCT-116 colon
KM12 colon = system: KM12 colon
SK-MEL-2 melanoma = system: SK-MEL-2 melanoma
MALME-3M melanoma = system: MALME-3M melanoma
MDA-MB-435 = system: MDA-MB-435
T-47D breast = system: T-47D breast

With `CS(=O)(=O)CCNCc1ccc(-c2ccc3ncnc(Nc4ccc(OCc5ccccc5)c(Cl)c4)c3c2)o1` the GI50 (BT-549 breast) was 6.9 µM, the TGI (BT-549 breast) was greater than 25 µM and the GI50 (SNB-75 CNS) was 4.94 µM. It also gave a TGI (SNB-75 CNS) greater than 25 µM, a GI50 (NCI-H460 lung) of 6.07 µM and a TGI (NCI-H460 lung) greater than 17.8 µM. The GI50 (NCI-H522 lung) was 2.2 µM, the TGI (NCI-H522 lung) was 6.79 µM and the GI50 (COLO 205 colon) was 4.05 µM. For the same compound, the TGI (COLO 205 colon) was 9.67 µM, the GI50 (ACHN renal) was 0.187 µM and the TGI (ACHN renal) was greater than 25 µM. For the same compound, the GI50 (NCI-H23 lung) was 8.98 µM, the TGI (NCI-H23 lung) was greater than 25 µM and the GI50 (SW-620 colon) was 4.49 µM. For the same compound, the TGI (SW-620 colon) was 8.98 µM, the GI50 (UACC-62 melanoma) was 4.11 µM and the TGI (UACC-62 melanoma) was 8.15 µM. The GI50 (HS 578T breast) was 3.55 µM, the TGI (HS 578T breast) was 12.7 µM and the GI50 (NCI-H226 lung) was 4.74 µM. For the same compound, the TGI (NCI-H226 lung) was greater than 22.9 µM, the GI50 (DU-145 prostate) was 7.91 µM and the TGI (DU-145 prostate) was greater than 25 µM. It also gave a GI50 (IGROV1 ovarian) of 2.8 µM, a TGI (IGROV1 ovarian) greater than 21.4 µM and a GI50 (EKVX NSCLC) of 0.132 µM. For the same compound, the TGI (EKVX NSCLC) was greater than 18.7 µM, the GI50 (OVCAR-5 ovarian) was 3.61 µM and the TGI (OVCAR-5 ovarian) was 18.8 µM. For the same compound, the GI50 (OVCAR-3 ovarian) was 6.54 µM, the TGI (OVCAR-3 ovarian) was greater than 25 µM and the GI50 (HL-60(TB) leukemia) was 5.2 µM. For the same compound, the TGI (HL-60(TB) leukemia) was 11.8 µM, the GI50 (TK-10 renal) was 0.158 µM and the TGI (TK-10 renal) was greater than 14.1 µM. For the same compound, the GI50 (NCI/ADR-RES ovarian) was 5.9 µM, the TGI (NCI/ADR-RES ovarian) was greater than 25 µM and the GI50 (A498 renal) was 1.56 µM. It also gave a TGI (A498 renal) of 9.33 µM, a GI50 (MDA-MB-231 breast) of 4.3 µM and a TGI (MDA-MB-231 breast) of 9.31 µM. For the same compound, the GI50 (MCF7 breast) was 5.06 µM, the TGI (MCF7 breast) was greater than 13.8 µM and the GI50 (SF-539 CNS) was 4.26 µM. It also gave a TGI (SF-539 CNS) of 9.2 µM, a GI50 (LOX IMVI melanoma) of 4.11 µM and a TGI (LOX IMVI melanoma) of 8.2 µM. The GI50 (U251 CNS) was 5.02 µM, the TGI (U251 CNS) was greater than 15.8 µM and the GI50 (SR leukemia) was 6.91 µM. It also gave a TGI (SR leukemia) of 23.9 µM, a GI50 (RXF 393 renal) of 1.61 µM and a TGI (RXF 393 renal) of 6.33 µM. The GI50 (HT29 colon) was 3.53 µM, the TGI (HT29 colon) was 7.98 µM and the GI50 (PC-3 prostate) was 7.41 µM. For the same compound, the TGI (PC-3 prostate) was 24.2 µM, the GI50 (HCT-15 colon) was 3.55 µM and the TGI (HCT-15 colon) was 10 µM. For the same compound, the GI50 (SNB-19 CNS) was 10.4 µM, the TGI (SNB-19 CNS) was greater than 25 µM and the GI50 (OVCAR-4 ovarian) was 9.59 µM. It also gave a TGI (OVCAR-4 ovarian) greater than 25 µM, a GI50 (HCC-2998 colon) of 4.27 µM and a TGI (HCC-2998 colon) of 8.37 µM. The GI50 (CAKI-1 renal) was 0.41 µM, the TGI (CAKI-1 renal) was greater than 21.8 µM and the GI50 (SK-MEL-5 melanoma) was 2.98 µM. The TGI (SK-MEL-5 melanoma) was 6.08 µM, the GI50 (MOLT-4 leukemia) was 6.05 µM and the TGI (MOLT-4 leukemia) was greater than 25 µM. The GI50 (UACC-257 melanoma) was 3.92 µM, the TGI (UACC-257 melanoma) was 7.74 µM and the GI50 (CCRF-CEM leukemia) was 7.24 µM. For the same compound, the TGI (CCRF-CEM leukemia) was greater than 21.5 µM, the GI50 (M14 melanoma) was 4.82 µM and the TGI (M14 melanoma) was 10 µM. For the same compound, the GI50 (UO-31 renal) was 1.64 µM, the TGI (UO-31 renal) was 7.38 µM and the GI50 (HOP-92 NSCLC) was 3.06 µM. It also gave a TGI (HOP-92 NSCLC) of 11.3 µM, a GI50 (SF-268 CNS) of 6.52 µM and a TGI (SF-268 CNS) greater than 25 µM. It also gave a GI50 (HOP-62 NSCLC) of 6.83 µM, a TGI (HOP-62 NSCLC) greater than 20.3 µM and a GI50 (SK-MEL-28 melanoma) of 3.85 µM. It also gave a TGI (SK-MEL-28 melanoma) of 7.49 µM, a GI50 (SK-OV-3 ovarian) of 0.0416 µM and a TGI (SK-OV-3 ovarian) greater than 8.58 µM. The GI50 (786-0 renal) was 4.06 µM, the TGI (786-0 renal) was 8.58 µM and the GI50 (K-562 leukemia) was 5.45 µM. It also gave a TGI (K-562 leukemia) of 14.4 µM, a GI50 (SN12C renal) of 11.9 µM and a TGI (SN12C renal) greater than 25 µM. It also gave a GI50 (OVCAR-8 ovarian) of 8.1 µM, a TGI (OVCAR-8 ovarian) greater than 25 µM and a GI50 (RPMI-8226 leukemia) of 5.49 µM. It also gave a TGI (RPMI-8226 leukemia) of 13.7 µM, a GI50 (SF-295 CNS) of 4.94 µM and a TGI (SF-295 CNS) of 12.1 µM. It also gave a GI50 (A549 NSCLC) of 7.18 µM, a TGI (A549 NSCLC) greater than 25 µM and a GI50 (HCT-116 colon) of 4.53 µM. It also gave a TGI (HCT-116 colon) of 9.54 µM, a GI50 (KM12 colon) of 6.41 µM and a TGI (KM12 colon) of 17.8 µM. For the same compound, the GI50 (SK-MEL-2 melanoma) was 4.62 µM, the TGI (SK-MEL-2 melanoma) was 9.71 µM and the GI50 (MALME-3M melanoma) was 5.18 µM. For the same compound, the TGI (MALME-3M melanoma) was 10.4 µM, the GI50 (MDA-MB-435) was 4.47 µM and the TGI (MDA-MB-435) was 9.78 µM. It also gave a GI50 (T-47D breast) of 1.1 µM and a TGI (T-47D breast) of 12.9 µM.
